Assay results as given in ChEMBL document CHEMBL5150040, “Bis-aryl-α,β-unsaturated ketone (ABK) chaperonin inhibitors exhibit selective cytotoxicity to colorectal cancer cells that correlates with levels of aberrant HSP60 in the cytosol” (Bioorg Med Chem, 2022).
Active and inactive are the calls of the source. No cut-off for these calls is given here.

Key:
[1] = tested on: HT-29; assay: Cytotoxicity against human HT-29 cells assessed as reduction in cell viability incubated for 48 hrs by AlamarBlue-based assay; type: functional; conditions: HT-29, 48 h
[2] = Cytotoxicity against human FHs74Int cells assessed as reduction in cell viability incubated for 48 hrs by AlamarBlue-based assay; type: toxicity
[3] = Inhibition of Escherichia coli GroEL expressed in NEB-5-alpha Escherichia coli cells/Escherichia coli GroES expressed in Escherichia coli BL21(DE3) cells assessed as inhibition of GroEL/ES-mediated dMDH refolding by reporter analysis
[4] = tested on: HCT-116; assay: Cytotoxicity against human HCT-116 cells assessed as reduction in cell viability incubated for 48 hrs by AlamarBlue-based assay; type: functional; conditions: HCT-116, 48 h
[5] = Cytotoxicity against human FHC cells assessed as reduction in cell viability incubated for 48 hrs by AlamarBlue-based assay; type: toxicity
[6] = Selectivity index, ratio of CC50 for cytotoxicity against non-cancerous cells to EC50 for cytotoxicity against human HCT-116 cells; type: toxicity, cell-based; conditions: non-cancerous cells versus HCT-116 cells, read-out: Ratio CC50/EC50
[7] = Inhibition of human mitochondrial HSP60 expressed in Escherichia coli Rosetta 2 (DE3) cells/human mitochondrial HSP10 expressed in Escherichia coli Rosetta 2 (DE3) pLysS cells assessed as inhibition of […]-mediated dMDH refolding by reporter analysis; type: mitochondria, Mitochondria
[8] = Inhibition of refolded rhodanese reporter enzyme (unknown origin); set-up: species or system Homo sapiens
[9] = Inhibition of refolded MDH reporter enzyme (unknown origin); set-up: species or system Homo sapiens
[10] = tested on: HCT-116; assay: Cytotoxicity against p53-/- human HCT-116 cells assessed as reduction in cell viability incubated for 48 hrs by AlamarBlue-based assay; type: functional; conditions: HCT-116, 48 h
[11] = tested on: DLD-1; assay: Cytotoxicity against human DLD-1 cells assessed as reduction in cell viability incubated for 48 hrs by AlamarBlue-based assay; type: functional; conditions: DLD-1, 48 h
[12] = Inhibition of Escherichia coli GroEL expressed in NEB-5-alpha Escherichia coli cells/Escherichia coli GroES expressed in Escherichia coli BL21(DE3) cells assessed as inhibition of GroEL/ES-mediated dRho refolding by reporter analysis
[13] = tested on: HCT-116; assay: Cytotoxicity against human HCT-116 cells assessed as reduction in cell viability incubated for 72 hrs by AlamarBlue-based assay relative to control; type: functional
[14] = tested on: Escherichia coli; assay: Inhibition of Escherichia coli GroEL expressed in NEB-5-alpha Escherichia coli cells/Escherichia coli GroES expressed in Escherichia coli BL21(DE3) cells assessed as inhibition of GroEL/ES-mediated dMDH refolding measured after 24 hrs dialysis period by reporter analysis
[15] = tested on: HCT-116; assay: Inhibition of clonogenicity in human HCT-116 cells at > 1 uM incubated for 72 hrs followed by incubation in fresh medium for 7 days by crystal violet staining based analysis; type: functional, cell-based
[16] = tested on: HCT-116; assay: Cytotoxicity against human HCT-116 cells assessed as reduction in cell viability at 0.01 to 100 uM by Trypan Blue staining based analysis; type: functional; conditions: dose 0.01-100 µM, time 24-48 hrs, TDE = time-dependent effect
[17] = tested on: HCT-116; assay: Induction of necrotic cell death in human HCT-116 cells at 0.1 to 100 uM incubated for 48 hrs by AnnexinV-FITC/PI staining based flow cytometry; type: functional; conditions: dose 0.1-100 µM
[18] = tested on: HCT-116; assay: Induction of apoptosis in human HCT-116 cells at 0.1 to 100 uM incubated for 48 hrs by AnnexinV-FITC/PI staining based flow cytometry; type: functional, cell-based; conditions: dose 0.1-100 µM
[19] = tested on: HCT-116; assay: Inhibition of cell migration in human HCT-116 cells measured after 26 hrs by scratch wound healing assay; type: functional, cell-based; conditions: HCT-116, 26 h
[20] = tested on: HCT-116; assay: Cytotoxicity against human HCT-116 cells assessed as reduction in cell viability incubated for 48 hrs by AlamarBlue-based assay relative to control; type: functional

SMILES | IC50 [3] [µM] | IC50 [7] [µM] | IC50 [8] [µM] | IC50 [9] [µM] | IC50 [12] [µM] | EC50 [19] [µM] | EC50 [1] [µM] | CC50 at 48 h [2] [µM] | EC50 [4] [µM] | CC50 at 48 h [5] [µM] | selectivity ratio [6] | EC50 [10] [µM] | EC50 [11] [µM] | Activity [13] [%] | inhibition [14] | inhibition [15] | Activity [16] | Activity [17] | Activity [18] | Activity [20] [%]
Nc1ccc(C(=O)/C=C/c2ccco2)cc1 | 5.9 | 9.8 | 55 | 46 | 12 | – | 28 | 86 | 21 | 90 | 4.2 | 24 | 31 | – | – | – | – | – | – | –
O=C(CCc1ccccc1)c1ccccc1 | > 100 | > 100 | > 100 | > 63 | > 250 | – | > 100 | > 100 | > 100 | > 100 | – | > 100 | > 100 | – | – | – | – | – | – | –
OC(/C=C/c1ccccc1)c1ccccc1 (stereo unspecified) | > 100 | > 100 | > 100 | > 63 | > 250 | – | > 100 | > 100 | > 100 | > 100 | – | > 100 | > 100 | – | – | – | – | – | – | –
O=C(/C=C/c1cccc([N+](=O)[O-])c1)c1ccc(NC(=O)c2ccco2)cc1 | 0.73 | 2.5 | > 100 | > 63 | 2.2 | – | 3.5 | 54 | 3.4 | > 100 | 23 | 4.1 | 22 | 100 | Active | Active | Tde | Active | Active | –
COc1ccc(C(=O)/C=C/c2ccccc2)cc1 [4'-METHOXYCHALCONE] | 13 | 16 | > 100 | > 63 | 34 | – | 23 | 37 | 16 | 62 | 3.2 | 17 | 35 | – | – | – | – | – | – | –
O=C(/C=C/c1ccc(O)cc1)c1ccccc1 [4-HYDROXYCHALCONE] | 20 | 21 | > 100 | > 63 | 39 | – | 39 | 97 | 32 | > 100 | 3.1 | 32 | 51 | – | – | – | – | – | – | –
O=C(/C=C/c1ccco1)c1ccc(NC(=O)c2cccs2)cc1 | 6.7 | 12 | > 100 | > 63 | 9.7 | – | 50 | 68 | 33 | 93 | 2.4 | 45 | 56 | – | – | – | – | – | – | –
CC(=O)Nc1ccc(C(=O)/C=C/c2cccc([N+](=O)[O-])c2)cc1 | 2.1 | 7.7 | > 100 | > 63 | 7 | – | 2 | 12 | 1.7 | 15 | 7.9 | 1.8 | 6.3 | – | – | – | – | – | – | –
Nc1ccc(C(=O)/C=C/c2ccccc2)cc1 | 57 | 43 | > 100 | > 63 | 135 | – | 35 | 97 | 27 | > 100 | 3.7 | 23 | 33 | – | – | – | – | – | – | –
O=C(/C=C/c1ccc([N+](=O)[O-])cc1)c1ccc(O)c(O)c1 | 2 | 6.2 | 45 | > 63 | 1.3 | – | 8.2 | 11 | 5.8 | 28 | 3.4 | 6.1 | 9.6 | – | – | – | – | – | – | –
O=C(NCc1ccccc1)c1ccccc1 | > 100 | > 100 | > 100 | > 63 | > 250 | – | > 100 | > 100 | > 100 | > 100 | – | > 100 | > 100 | – | – | – | – | – | – | –
CC(=O)Nc1ccc(C(=O)/C=C/c2ccco2)cc1 | 41 | 44 | > 100 | > 63 | 67 | – | 88 | 99 | 56 | > 100 | 1.8 | 72 | 84 | – | – | – | – | – | – | –
COc1ccc(/C=C/C(=O)c2ccccc2)cc1 [4-METHOXY CHALCONE] | 27 | 22 | > 100 | > 63 | 46 | – | 32 | 91 | 22 | 99 | 4.4 | 30 | 52 | – | – | – | – | – | – | –
O=C(/C=C/c1cccc([N+](=O)[O-])c1)c1ccc(NC(=O)c2cccs2)cc1 | 0.41 | 2.2 | > 100 | > 63 | 1.5 | 13 | 2.5 | 24 | 2.6 | 73 | 19 | 2.5 | 11 | – | – | Active | Tde | Active | Active | 100

Further lines, with some results ahead:

IC50 [3] [µM] | IC50 [7] [µM] | IC50 [8] [µM] | IC50 [9] [µM] | IC50 [12] [µM] | EC50 [19] [µM] | SMILES | EC50 [1] [µM] | CC50 at 48 h [2] [µM] | EC50 [4] [µM] | CC50 at 48 h [5] [µM] | selectivity ratio [6] | EC50 [10] [µM] | EC50 [11] [µM] | Activity [13] [%] | inhibition [14] | inhibition [15] | Activity [16] | Activity [17] | Activity [18] | Activity [20] [%]
4.3 | 5.9 | > 100 | > 63 | 27 | – | O=C(/C=C/c1ccccc1)c1ccc(NC(=O)c2ccccc2)cc1 | 36 | 60 | 17 | 73 | 3.9 | 28 | 46 | – | – | – | – | – | – | –
3.8 | 4.7 | > 100 | > 63 | 20 | – | O=C(/C=C/c1ccccc1)c1ccc(NC(=O)c2cccs2)cc1 | 28 | 40 | 12 | 83 | 4.9 | 16 | 35 | – | – | – | – | – | – | –
9.4 | 14 | > 100 | > 63 | 40 | – | CC(=O)Nc1ccc(C(=O)/C=C/c2ccccc2)cc1 | 13 | 58 | 11 | 86 | 6.7 | 11 | 28 | – | – | – | – | – | – | –
0.71 | 2.3 | > 100 | > 63 | 3.1 | – | O=C(/C=C/c1cccc([N+](=O)[O-])c1)c1ccc(NC(=O)c2ccccc2)cc1 | 3.9 | > 100 | 4.1 | > 100 | 24 | 25 | > 100 | – | – | – | – | – | – | –
7.1 | 8.6 | > 100 | > 63 | 27 | – | O=C(/C=C/c1ccccc1)c1ccccc1 [CHALCONE] | 14 | 46 | 9.5 | 71 | 6.2 | 11 | 25 | – | – | – | – | – | – | –
21 | 20 | > 100 | > 63 | 37 | – | O=C(/C=C/c1ccco1)c1ccc(NC(=O)c2ccccc2)cc1 | 76 | > 100 | 42 | > 100 | 2.4 | 59 | 69 | – | – | – | – | – | – | –
20 | 21 | > 100 | > 63 | 61 | – | O=C(/C=C/c1ccccc1)c1ccc(O)cc1 [4'-HYDROXYCHALCONE] | 30 | 65 | 20 | 82 | 3.7 | 21 | 34 | – | – | – | – | – | – | –
